Read-outs that look alike come from different tables or passages of the source.
System: mouse bone marrow polychromatic erythrocytes
Conditions: mouse, in vivo; for Number of Micronuclei / P/N / P/N Ratio: po
Method: It is the object to test the mutagenic potential of drugs on mammalian somatic cells, and provide a basis for clinical drug use.
An appropriate amount of 0.5% sodium carboxymethyl cellulose solution was added to prepare a suspension, and the suspension was stored in a refrigerator at 4° C. The negative control was an equal amount of 0.5% sodium carboxymethylcellulose solution. The positive control was prepared as follows: an appropriate amount of cyclophosphamide used for injection was weighed, and was dissolved in normal saline at the time of use to prepare 60 mg/kg of solution.
6 mice per group. The doses, number of administrations, and bone marrow sampling time are selected in the pre-test.
The dose is reduced by ½ LD50 as the standard, and the number of administrations is one time. According to the pre-test results, the bone marrow sampling time is to sample 24 hours after administration.
At least three dose groups, respectively: 2,000 mg/kg, 1,000 mg/kg, 500 mg/kg
The number of administrations: one-time oral administration.
Oral (Intragastric) administration.
2.4.3 Bone marrow sampling time: 24 hours after administration.
The mice were sacrificed by cervical dislocation. Then the sternums were taken to remove the muscles thereon and the attachments were wiped with a gauze. Direct smear of bone marrow was used: the sternums were cut to expose the medullary cavity, and bone marrow was extruded and mixed well with a drop of calf serum on a slide beforehand as a push piece. After being dried, the slide was fixed in methanol for 10 minutes, and then after it was dried, it was then subjected to Giemsa staining. Each mouse was microscopically examined for about 1,000 polychromatic erythrocytes with intact contours of erythrocytes, and the frequency of occurrence of micronuclei and the ratio of polychromatic erythrocytes to erythrocytes were counted.

Substance: Carrimycin
- conclusion of micronucleus test: chromosomal cleavage: is not a chromosomal cleavage agent
- conclusion of micronucleus test: effect on the bone marrow: no inhibitory effect on the bone marrow
- micronucleus rate of polychromatic erythrocytes compared with the negative control group: do not have significant increase
- Number of Micronuclei (500 mg/kg): 18
- P/N (500 mg/kg): 0.34
- P/N Ratio (500 mg/kg): 0.34
- Number of Micronuclei (1000 mg/kg): 16
- P/N (1000 mg/kg): 0.33
- P/N Ratio (1000 mg/kg): 0.33
- Number of Micronuclei (2000 mg/kg): 21
- P/N (2000 mg/kg): 0.38
- P/N Ratio (2000 mg/kg): 0.38

— patent publication US11077126B2 (priority 2017, dated 2021)
